target: T1, human PAR4 (Homo sapiens, UniProt Q96RI0); assay: PAR4 FLIPR assay: antagonism of agonist-peptide-induced calcium mobilization in PAR4-expressing HEK293 cells; type: cell-based; conditions: H-Ala-Phe(4-F)-[…]NH2-induced intracellular calcium mobilization, 11-point curves
T1 construct: expressed in transfected cells; host or cells: HEK293 PAR4 Clone 1.2A (BMS Arctic ID 383940)
T1 sequence (Q96RI0 18-385): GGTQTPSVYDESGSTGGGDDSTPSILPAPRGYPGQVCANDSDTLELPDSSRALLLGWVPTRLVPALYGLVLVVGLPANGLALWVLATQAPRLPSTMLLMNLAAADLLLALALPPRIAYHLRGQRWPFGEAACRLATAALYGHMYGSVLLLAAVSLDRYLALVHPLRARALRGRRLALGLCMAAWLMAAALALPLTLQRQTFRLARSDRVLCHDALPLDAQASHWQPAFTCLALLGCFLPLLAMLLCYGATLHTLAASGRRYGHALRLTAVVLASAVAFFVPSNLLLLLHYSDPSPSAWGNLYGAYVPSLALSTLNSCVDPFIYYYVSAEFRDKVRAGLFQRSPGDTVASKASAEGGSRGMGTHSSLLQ

Point of comparison: COc1cnc2c(-c3nc4c(C)cc(OC[C@@H](C)OC(=O)Nc5cccnc5)nc4s3)cc(C)cc2n1 [Example 733, (R)-1-((2-(2-methoxy-7-methylquinoxalin-5-yl)-7-methylthiazolo[5,4-b]pyridin-5-yl)oxy)propan-2-yl pyridin-3-ylcarbamate], IC50 1.1 nM. Against it:
- COC(=O)c1ccc(NC(=O)O[C@H](C)[C@H](C)Oc2nc3sc(-c4cc(C)cc5nc(OC)cnc45)nc3cc2F)cn1 [Example 715, methyl 5-(((((2R,3S)-3-((6-fluoro-2-(2-methoxy-7-methylquinoxalin-5-yl)thiazolo[5,4-b]pyridin-5-yl)oxy)butan-2-yl)oxy)carbonyl)amino)picolinate] — within 1.5-fold, 0.9 nM
- COc1cnc2c(-c3nc4cc(F)c(O[C@@H](C)[C@@H](C)OC(=O)Nc5cncnc5)nc4s3)cc(C)cc2n1 [Example 716, (2R,3S)-3-((6-fluoro-2-(2-methoxy-7-methylquinoxalin-5-yl)thiazolo[5,4-b]pyridin-5-yl)oxy)butan-2-yl pyrimidin-5-ylcarbamate] — 1.8-fold higher, 2 nM
- COc1cnc2c(-c3nc4cc(F)c(O[C@@H](C)[C@@H](C)OC(=O)Nc5ccnc(CCO)c5)nc4s3)cc(C)cc2n1 [Example 717, (2R,3S)-3-((6-fluoro-2-(2-methoxy-7-methylquinoxalin-5-yl)thiazolo[5,4-b]pyridin-5-yl)oxy)butan-2-yl (2-(2-hydroxyethyl)pyridin-4-yl)carbamate] — within 1.5-fold, 1.6 nM
- COc1cnc2c(-c3nc4cc(F)c(O[C@@H](C)[C@@H](C)OC(=O)Nc5ccc(CC(C)(C)O)nc5)nc4s3)cc(C)cc2n1 [Example 718, (2R,3S)-3-((6-fluoro-2-(2-methoxy-7-methylquinoxalin-5-yl)thiazolo[5,4-b]pyridin-5-yl)oxy)butan-2-yl (6-(2-hydroxy-2-methylpropyl)pyridin-3-yl)carbamate] — 1.5-fold higher, 1.7 nM
- COc1cnc2c(-c3nc4cc(F)c(O[C@@H](C)[C@@H](C)OC(=O)Nc5ccnc(OCCO)c5)nc4s3)cc(C)cc2n1 [Example 719, (2R,3S)-3-((6-fluoro-2-(2-methoxy-7-methylquinoxalin-5-yl)thiazolo[5,4-b]pyridin-5-yl)oxy)butan-2-yl (2-(2-hydroxyethoxy)pyridin-4-yl)carbamate] — 1.5-fold higher, 1.7 nM
- COc1cnc2c(-c3nc4cc(F)c(O[C@@H](C)[C@@H](C)OC(=O)Nc5cnc(CCO)nc5)nc4s3)cc(C)cc2n1 [Example 720, (2R,3S)-3-((6-fluoro-2-(2-methoxy-7-methylquinoxalin-5-yl)thiazolo[5,4-b]pyridin-5-yl)oxy)butan-2-yl (2-(2-hydroxyethyl)pyrimidin-5-yl)carbamate] — 2.9-fold higher, 3.2 nM
- COc1cnc2c(-c3nc4cc(F)c(O[C@@H](C)[C@@H](C)OC(=O)Nc5cnc(OCCO)nc5)nc4s3)cc(C)cc2n1 [Example 721, (2R,3S)-3-((6-fluoro-2-(2-methoxy-7-methylquinoxalin-5-yl)thiazolo[5,4-b]pyridin-5-yl)oxy)butan-2-yl (2-(2-hydroxyethoxy)pyrimidin-5-yl)carbamate] — 2.4-fold higher, 2.6 nM
- COc1cnc2c(-c3nc4cc(F)c(O[C@@H](C)[C@@H](C)OC(=O)Nc5cnc(O[C@H](C)CO)nc5)nc4s3)cc(C)cc2n1 [Example 722, (2R,3S)-3-((6-fluoro-2-(2-methoxy-7-methylquinoxalin-5-yl)thiazolo[5,4-b]pyridin-5-yl)oxy)butan-2-yl (2-(((R)-1-hydroxypropan-2-yl)oxy)pyrimidin-5-yl)carbamate] — within 1.5-fold, 1.4 nM
- COc1cnc2c(-c3nc4cc(F)c(O[C@@H](C)[C@@H](C)OC(=O)Nc5ccnc(CO)c5)nc4s3)cc(C)cc2n1 [Example 723, (2R,3S)-3-((6-fluoro-2-(2-methoxy-7-methylquinoxalin-5-yl)thiazolo[5,4-b]pyridin-5-yl)oxy)butan-2-yl (2-(hydroxymethyl)pyridin-4-yl)carbamate] — 2.2-fold higher, 2.4 nM
- COc1cnc2c(-c3nc4cc(F)c(O[C@@H](C)[C@@H](C)OC(=O)Nc5cnc(O[C@@H](C)CO)nc5)nc4s3)cc(C)cc2n1 [Example 724, (2R,3S)-3-((6-fluoro-2-(2-methoxy-7-methylquinoxalin-5-yl)thiazolo[5,4-b]pyridin-5-yl)oxy)butan-2-yl (2-(((S)-1-hydroxypropan-2-yl)oxy)pyrimidin-5-yl)carbamate] — 1.9-fold higher, 2.1 nM
- COc1cnc2c(-c3nc4cc(F)c(O[C@@H](C)[C@@H](C)OC(=O)Nc5ccc(OCCO)nc5)nc4s3)cc(C)cc2n1 [Example 725, (2R,3S)-3-((6-fluoro-2-(2-methoxy-7-methylquinoxalin-5-yl)thiazolo[5,4-b]pyridin-5-yl)oxy)butan-2-yl (6-(2-hydroxyethoxy)pyridin-3-yl)carbamate] — within 1.5-fold, 0.8 nM
- COc1cnc2c(-c3nc4cc(F)c(O[C@@H](C)[C@@H](C)OC(=O)Nc5ccc(OCC(F)(F)CO)nc5)nc4s3)cc(C)cc2n1 [Example 726, (2R,3S)-3-((6-fluoro-2-(2-methoxy-7-methylquinoxalin-5-yl)thiazolo[5,4-b]pyridin-5-yl)oxy)butan-2-yl (6-(2,2-difluoro-3-hydroxypropoxy)pyridin-3-yl)carbamate] — within 1.5-fold, 1.2 nM
- COc1cnc2c(-c3nc4cc(F)c(O[C@@H](C)[C@@H](C)OC(=O)Nc5ccnc(OCCC(C)(C)O)c5)nc4s3)cc(C)cc2n1 [Example 727, (2R,3S)-3-((6-fluoro-2-(2-methoxy-7-methylquinoxalin-5-yl)thiazolo[5,4-b]pyridin-5-yl)oxy)butan-2-yl (2-(3-hydroxy-3-methylbutoxy)pyridin-4-yl)carbamate] — 1.5-fold higher, 1.7 nM
- COc1cnc2c(-c3nc4cc(F)c(O[C@@H](C)[C@@H](C)OC(=O)Nc5cnc(OC[C@H](C)O)nc5)nc4s3)cc(C)cc2n1 [Example 728, (2R,3S)-3-((6-fluoro-2-(2-methoxy-7-methylquinoxalin-5-yl)thiazolo[5,4-b]pyridin-5-yl)oxy)butan-2-yl (2-((S)-2-hydroxypropoxy)pyrimidin-5-yl)carbamate] — 2.2-fold higher, 2.4 nM
- COc1cnc2c(-c3nc4cc(F)c(O[C@@H](C)[C@@H](C)OC(=O)Nc5cnc(OC[C@@H](C)O)nc5)nc4s3)cc(C)cc2n1 [Example 729, (2R,3S)-3-((6-fluoro-2-(2-methoxy-7-methylquinoxalin-5-yl)thiazolo[5,4-b]pyridin-5-yl)oxy)butan-2-yl (2-((R)-2-hydroxypropoxy)pyrimidin-5-yl)carbamate] — 2.5-fold higher, 2.8 nM
- COc1cnc2c(-c3nc4cc(F)c(O[C@@H](C)[C@@H](C)OC(=O)Nc5cnc(OCCC(C)(C)O)nc5)nc4s3)cc(C)cc2n1 [Example 730, (2R,3S)-3-((6-fluoro-2-(2-methoxy-7-methylquinoxalin-5-yl)thiazolo[5,4-b]pyridin-5-yl)oxy)butan-2-yl (2-(3-hydroxy-3-methylbutoxy)pyrimidin-5-yl)carbamate] — 12-fold higher, 13 nM
- COc1cnc2c(-c3nc4cc(F)c(O[C@@H](C)[C@@H](C)OC(=O)Nc5cnc(C)nc5)nc4s3)cc(C)cc2n1 [Example 731, (2R,3S)-3-((6-fluoro-2-(2-methoxy-7-methylquinoxalin-5-yl)thiazolo[5,4-b]pyridin-5-yl)oxy)butan-2-yl (2-methylpyrimidin-5-yl)carbamate] — within 1.5-fold, 0.9 nM
- COc1cnc2c(-c3nc4c(C)cc(OC[C@@H](C)OC(=O)Nc5cnc(F)c(C)c5)nc4s3)cc(C)cc2n1 [Example 734, (R)-1-((2-(2-methoxy-7-methylquinoxalin-5-yl)-7-methylthiazolo[5,4-b]pyridin-5-yl)oxy) propan-2-yl (6-fluoro-5-methylpyridin-3-yl)carbamate] — within 1.5-fold, 1 nM
- COc1cnc2c(-c3nc4c(C)cc(OC[C@@H](C)OC(=O)Nc5cncc(C#N)c5)nc4s3)cc(C)cc2n1 [Example 735, (R)-1-((2-(2-methoxy-7-methylquinoxalin-5-yl)-7-methylthiazolo[5,4-b]pyridin-5-yl)oxy) propan-2-yl (5-cyanopyridin-3-yl)carbamate] — the same, 1.1 nM
- COc1cnc2c(-c3nc4c(C)cc(OC[C@@H](C)OC(=O)Nc5cnc(Cl)nc5)nc4s3)cc(C)cc2n1 [Example 736, (R)-1-((2-(2-methoxy-7-methylquinoxalin-5-yl)-7-methylthiazolo[5,4-b]pyridin-5-yl)oxy) propan-2-yl (2-chloropyrimidin-5-yl)carbamate] — 4.8-fold higher, 5.3 nM
- COc1cnc2c(-c3nc4c(C)cc(OC[C@@H](C)OC(=O)Nc5cnc(C)nc5)nc4s3)cc(C)cc2n1 [Example 737, (R)-1-((2-(2-methoxy-7-methylquinoxalin-5-yl)-7-methylthiazolo[5,4-b]pyridin-5-yl)oxy) propan-2-yl (2-methylpyrimidin-5-yl)carbamate] — 7.4-fold higher, 8.1 nM
- COc1cnc2c(-c3nc4c(C)cc(OC[C@@H](C)OC(=O)Nc5cnc(OC)nc5)nc4s3)cc(C)cc2n1 [Example 738, (R)-1-((2-(2-methoxy-7-methylquinoxalin-5-yl)-7-methylthiazolo[5,4-b]pyridin-5-yl)oxy) propan-2-yl (2-methoxypyrimidin-5-yl)carbamate] — 9.1-fold higher, 10 nM
- COc1cnc2c(-c3nc4cc(F)c(OC[C@@H](C)OC(=O)Nc5ccc(C(=O)NCC(C)(C)O)nc5)nc4s3)cc(C)cc2n1 [Example 741, (R)-1-((6-fluoro-2-(2-methoxy-7-methylquinoxalin-5-yl)thiazolo[5,4-b]pyridin-5-yl)oxy) propan-2-yl (6-((2-hydroxy-2-methylpropyl)carbamoyl)pyridin-3-yl)carbamate] — 1.9-fold higher, 2.1 nM
- COc1cnc2c(-c3nc4cc(F)c(OC[C@@H](C)OC(=O)Nc5ccc(C(=O)NC[C@@H](C)O)nc5)nc4s3)cc(C)cc2n1 [Example 747, (R)-1-((6-fluoro-2-(2-methoxy-7-methylquinoxalin-5-yl)thiazolo[5,4-b]pyridin-5-yl)oxy) propan-2-yl (6-(((R)-2-hydroxypropyl)carbamoyl)pyridin-3-yl)carbamate] — 2.2-fold higher, 2.4 nM
